Results published in US9101627B2, “Pharmaceutical compositions containing bradykinin antagonists and hyaluronic acid, and uses thereof” (ISTITUTO LUSO FARMACO D'ITALIA S.P.A., priority 2007, dated 2015).

How the values were obtained:
[1] = tested on: experimental model of osteoarthritis induced by intra-articular injection of sodium monoiodoacetate (MIA); assay: MIA-induced osteoarthritis model, incapacitance test (weight imbalance between paws); type: in vivo; conditions: rat; for time of maximal inhibitory effect after administration / reduction of the pain caused by osteoarthritis: 3 μg/25 μl i.a., single compound; for reduction of the pain caused by osteoarthritis: 7 days after MIA; for inhibitory effect at higher dose: 10 μg/25 μl i.a. versus 3 μg/25 μl; for duration of antinociceptive effect: single compound i.a.
Method: The activity of MEN16132, icatibant and hyaluronic acid was measured in an experimental model of osteoarthritis induced by intra-articular injection of sodium monoiodoacetate (MIA) which inhibits glycolysis in the chondrocytes, thus causing damage and death to those cells with consequent degeneration of the joint surface, in a very similar way to human osteoarthritis.
MIA (1 mg/25 μl) was injected into the intra-articular space of the right knee of the rat, while 25 μl of saline was administered to the left knee as internal control.
The administration of MIA causes pain, difficulty of walking and inability to bear weight on the paw corresponding to the treated knee; the weight of the body therefore falls mainly on the left paw, to an extent directly proportional to the pain perceived. This effect persists for many weeks. The imbalance in weight on the two weight-bearing paws, evaluated in a non-invasive way with the incapacitance test, measures the pain resulting from the joint damage (osteoarthritis) induced by MIA.
The purpose of this test was to evaluate the protective effect of bradykinin B2 receptor antagonists against experimental osteoarthritis, and to establish the effect of co-administration of hyaluronic acid.
Seven days after the treatment with MIA, the compounds under study were injected, and the test was repeated at various times to measure the painkilling effect and its duration.

[2] = tested on: patients with symptomatic OA of the knee; conditions: 58 patients, single intra-articular administration 90 μg/1 ml; cited from earlier work
[3] = tested on: patients with OA of the knee; conditions: intra-articular, 3×500 μg injections one week apart; cited from earlier work

SMILES	time of maximal inhibitory effect after administration [1] [days]	reduction of the pain caused by osteoarthritis [1] [%]	inhibitory effect at higher dose [1]	duration of antinociceptive effect [1]	intensity of pain in the knee versus placebo [2]	duration of analgesic response after the treatment [3]	side effects [3]
Cc1cc(C)c2cccc(OCc3c(Cl)ccc(S(=O)(=O)NC4(C(=O)N5CCN(C(=O)[C@@H](N)CCC[N+](C)(C)C)CC5)CCOCC4)c3Cl)c2n1 [MEN16132, (4-(S)-Amino-5-(4-{4-[2,4-dichloro-3-(2,4-dimethyl-quinoline-8-yloxymethyl)-benzenesulphonylamino]-tetrahydro-pyran-4-carbonyl}-piperazin-1-yl)-5-oxo-pentyl]-trimethyl-ammonium]	3	55	No further significant increase in inhibitory effect	lasted for over a week			
NC(N)=NCCC[C@@H](N)C(=O)N[C@@H](CCCN=C(N)N)C(=O)N1CCC[C@H]1C(=O)N1C[C@H](O)C[C@H]1C(=O)NCC(=O)N[C@@H](Cc1cccs1)C(=O)N[C@@H](CO)C(=O)N1Cc2ccccc2C[C@@H]1C(=O)N1[C@H](C(=O)N[C@@H](CCCN=C(N)N)C(=O)O)C[C@@H]2CCCC[C@@H]21 [icatibant, H-D-Arg-Arg-Pro-Hyp-Gly-Thi-Ser-D-Tic-Oic-Arg-OH]	3	40	No further significant increase in inhibitory effect	lasted for over a week	reduced the intensity of pain in the knee to a greater extent than the placebo	up to 3 months	negligible or no side effects
